The record followed here is PubChem BioAssay AID248 (DTP/NCI, 2004).

The test relates to L1210 leukemia ip in BDF1 mice, survival T/C. Put plainly: NCI In Vivo Anticancer Drug Screen. Data for tumor model L1210 Leukemia (intraperitoneal) in B6D2F1 (BDF1) mice. Conditions: higher = longer survival. In outline:
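Read-out is survival time, reported as the treated-group measurement over the vehicle-control measurement.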

[1] abbreviates: endpoint: mean survival time, dose: 100.0 mg/kg/injection, schedule: Q04DX003 (ip), vehicle: Klucel (hydroxypropylcellulose) (HPC).
[2] abbreviates: endpoint: mean survival time, dose: 200.0 mg/kg/injection, schedule: Q04DX003 (ip), vehicle: Klucel (hydroxypropylcellulose) (HPC).
The mark [3] stands for this setting: endpoint: mean survival time, dose: 400.0 mg/kg/injection, schedule: Q04DX003 (ip), vehicle: Klucel (hydroxypropylcellulose) (HPC).
Where [4] appears, read: endpoint: mean survival time, dose: 75.0 mg/kg/injection, schedule: Q04DX003 (ip), vehicle: saline.
Setting [5] is: endpoint: mean survival time, dose: 150.0 mg/kg/injection, schedule: Q01DX009 (ip), vehicle: saline.
Setting [6] is: endpoint: mean survival time, dose: 150.0 mg/kg/injection, schedule: Q04DX003 (ip), vehicle: saline.
[7] abbreviates: endpoint: mean survival time, dose: 300.0 mg/kg/injection, schedule: Q04DX003 (ip), vehicle: saline.
Where [8] appears, read: endpoint: mean survival time, dose: 100.0 mg/kg/injection, schedule: Q01DX009 (ip), vehicle: Klucel (hydroxypropylcellulose) (HPC).
The mark [9] stands for this setting: endpoint: mean survival time, dose: 200.0 mg/kg/injection, schedule: Q01DX009 (ip), vehicle: Klucel (hydroxypropylcellulose) (HPC).
The mark [10] stands for this setting: endpoint: mean survival time, dose: 100.0 mg/kg/injection, schedule: Q01DX001 (ip), vehicle: saline.
Setting [11] is: endpoint: mean survival time, dose: 200.0 mg/kg/injection, schedule: Q01DX001 (ip), vehicle: saline.
[12] abbreviates: endpoint: mean survival time, dose: 100.0 mg/kg/injection, schedule: Q01DX009 (ip), vehicle: saline with Tween-80.
[13] abbreviates: endpoint: mean survival time, dose: 200.0 mg/kg/injection, schedule: Q01DX009 (ip), vehicle: saline with Tween-80.
The mark [14] stands for this setting: endpoint: mean survival time, dose: 100.0 mg/kg/injection, schedule: Q04DX002 (ip), vehicle: Klucel (hydroxypropylcellulose) (HPC).
[15] abbreviates: endpoint: mean survival time, dose: 200.0 mg/kg/injection, schedule: Q04DX002 (ip), vehicle: Klucel (hydroxypropylcellulose) (HPC).
[16] abbreviates: endpoint: mean survival time, dose: 400.0 mg/kg/injection, schedule: Q04DX002 (ip), vehicle: Klucel (hydroxypropylcellulose) (HPC).

Several values for one entry are separate records, joined by “and”; a condition that tells them apart may be missing. Equal values may be shown once. Inconclusive results and toxic doses are left out.

In the case of `CCC(CC)CC1CN2CCc3cc(OC)c(OC)cc3C2CC1(O)CC` (stereo unspecified), the T/C (endpoint: mean survival time, dose: 3.12 mg/kg/injection, schedule: Q01DX009 (ip), vehicle: Klucel (hydroxypropylcellulose) (HPC)) is 93 % of control; the T/C (endpoint: mean survival time, dose: 6.25 mg/kg/injection, schedule: Q01DX009 (ip), vehicle: Klucel (hydroxypropylcellulose) (HPC)) is 97 % of control; the T/C (endpoint: mean survival time, dose: 12.5 mg/kg/injection, schedule: Q01DX009 (ip), vehicle: Klucel (hydroxypropylcellulose) (HPC)) was 109 % of control; the T/C (endpoint: mean survival time, dose: 25.0 mg/kg/injection, schedule: Q01DX009 (ip), vehicle: Klucel (hydroxypropylcellulose) (HPC)) was 119 % of control; the T/C (endpoint: mean survival time, dose: 25.0 mg/kg/injection, schedule: Q04DX003 (ip), vehicle: Klucel (hydroxypropylcellulose) (HPC)) is 115 % of control; the T/C (endpoint: mean survival time, dose: 50.0 mg/kg/injection, schedule: Q01DX009 (ip), vehicle: Klucel (hydroxypropylcellulose) (HPC)) is 97 % of control. For the same compound, the T/C (endpoint: mean survival time, dose: 50.0 mg/kg/injection, schedule: Q04DX003 (ip), vehicle: Klucel (hydroxypropylcellulose) (HPC)) is 99 % of control.

Regarding `Oc1ccccc1/C=N/n1cnnc1`, the T/C is 98 % of control under setting [1], 100 % of control under setting [2] and 100 % of control under setting [3].

Regarding `CCCCCCCNc1ccc(C(=O)O)cc1`, the T/C is, setting by setting: (endpoint: mean survival time, dose: 37.5 mg/kg/injection, schedule: Q01DX009 (ip), vehicle: saline) 105 % of control; (endpoint: mean survival time, dose: 75.0 mg/kg/injection, schedule: Q01DX001 (ip), vehicle: saline) 93 % of control; (endpoint: mean survival time, dose: 75.0 mg/kg/injection, schedule: Q01DX009 (ip), vehicle: saline) 94 % of control; under setting [4], 105 % of control; (endpoint: mean survival time, dose: 150.0 mg/kg/injection, schedule: Q01DX001 (ip), vehicle: saline) 104 % of control; under setting [5], 98 % of control. Besides, the T/C is 109 % of control under setting [6]; 102 % of control (endpoint: mean survival time, dose: 300.0 mg/kg/injection, schedule: Q01DX001 (ip), vehicle: saline); 102 % of control under setting [7].

As to `OC(CN1CCCCC1)c1ccncc1` (stereo unspecified), the T/C is, setting by setting: under setting [4], 94 % of control; under setting [6], 94 % of control; under setting [7], 96 % of control.

As to `CCOCCOCCOC(C)Oc1ccc(Br)cc1` (stereo unspecified), the T/C runs as follows: (endpoint: mean survival time, dose: 100.0 mg/kg/injection, schedule: Q04DX002 (ip), vehicle: saline) 103 % of control; (endpoint: mean survival time, dose: 200.0 mg/kg/injection, schedule: Q04DX002 (ip), vehicle: saline) 103 % of control; (endpoint: mean survival time, dose: 400.0 mg/kg/injection, schedule: Q04DX002 (ip), vehicle: saline) 100 % of control.

In the case of `O=C(Nc1ccc([N+](=O)[O-])cc1Cl)Oc1ccc2ccccc2c1`, the T/C is 92 % of control under setting [8]; 100 % of control under setting [1]; 87 % of control under setting [9]; 97 % of control under setting [2]; 100 % of control under setting [3].

With `CCCCCCCCC1OCC(C)(C)C(C(C)C)O1` (stereo unspecified), the T/C reads like this: (endpoint: mean survival time, dose: 50.0 mg/kg/injection, schedule: Q01DX001 (ip), vehicle: carboxymethylcellulose (CMC)) 102 % of control; (endpoint: mean survival time, dose: 100.0 mg/kg/injection, schedule: Q01DX001 (ip), vehicle: carboxymethylcellulose (CMC)) 104 % of control; (endpoint: mean survival time, dose: 200.0 mg/kg/injection, schedule: Q01DX001 (ip), vehicle: carboxymethylcellulose (CMC)) 107 % of control; (endpoint: mean survival time, dose: 400.0 mg/kg/injection, schedule: Q01DX001 (ip), vehicle: carboxymethylcellulose (CMC)) 104 % of control.

For the compound `O=C(NCCCl)Nc1cccc(Cl)c1`, the T/C is, setting by setting: (endpoint: mean survival time, dose: 25.0 mg/kg/injection, schedule: Q01DX001 (ip), vehicle: saline with Tween-80) 97 % of control; (endpoint: mean survival time, dose: 50.0 mg/kg/injection, schedule: Q01DX001 (ip), vehicle: saline with Tween-80) 94 % of control; (endpoint: mean survival time, dose: 100.0 mg/kg/injection, schedule: Q01DX001 (ip), vehicle: saline with Tween-80) 86 % of control.

With `COC(=O)OCC1OC(OC(C)=O)C2OC(=O)OC12` (stereo unspecified), the T/C under setting [10] was 97 % of control; the T/C under setting [11] was 97 % of control; the T/C (endpoint: mean survival time, dose: 400.0 mg/kg/injection, schedule: Q01DX001 (ip), vehicle: saline) was 97 % of control.

On to `CCN(CC)C(=O)Oc1ccc(OC)cc1`, for which the T/C was 109 % of control under setting [12] and 96 % of control under setting [13].

Consider `CCC1(O)C(=O)OCc2c1cc1n(c2=O)CCC1` (stereo unspecified), for which the T/C is, setting by setting: (endpoint: mean survival time, dose: 12.5 mg/kg/injection, schedule: Q01DX001 (ip), vehicle: saline) 113 % of control; (endpoint: mean survival time, dose: 25.0 mg/kg/injection, schedule: Q01DX001 (ip), vehicle: saline) 106 % of control and 110 % of control; (endpoint: mean survival time, dose: 50.0 mg/kg/injection, schedule: Q01DX001 (ip), vehicle: saline) 102 % of control; under setting [10], 101 % of control; under setting [11], 98 % of control.

`Cc1c(C)c(CC#N)c(C)c(C)c1CC#N`: the T/C under setting [8] was 86 % of control; the T/C under setting [1] was 91 % of control; the T/C under setting [9] was 88 % of control; the T/C under setting [2] was 88 % of control; the T/C under setting [3] is 94 % of control.

Turning to `CC1(C)Cc2cccc(OC(=O)NO)c2O1`, the T/C is 100 % of control (endpoint: mean survival time, dose: 12.5 mg/kg/injection, schedule: Q01DX001 (ip), vehicle: Klucel (hydroxypropylcellulose) (HPC)); 96 % of control (endpoint: mean survival time, dose: 25.0 mg/kg/injection, schedule: Q01DX001 (ip), vehicle: Klucel (hydroxypropylcellulose) (HPC)); 96 % of control (endpoint: mean survival time, dose: 50.0 mg/kg/injection, schedule: Q01DX001 (ip), vehicle: Klucel (hydroxypropylcellulose) (HPC)).

For the compound `O=C(NCCCN1CCN(CCCNC(=O)c2cccnc2)CC1)c1cccnc1`, the T/C runs as follows: (endpoint: mean survival time, dose: 6.25 mg/kg/injection, schedule: Q01DX009 (ip), vehicle: saline) 92 % of control; (endpoint: mean survival time, dose: 12.5 mg/kg/injection, schedule: Q01DX009 (ip), vehicle: saline) 93 % of control; (endpoint: mean survival time, dose: 25.0 mg/kg/injection, schedule: Q01DX009 (ip), vehicle: saline) 97 % of control; (endpoint: mean survival time, dose: 50.0 mg/kg/injection, schedule: Q01DX009 (ip), vehicle: saline) 101 % of control; (endpoint: mean survival time, dose: 100.0 mg/kg/injection, schedule: Q01DX009 (ip), vehicle: saline) 109 % of control; under setting [5], 100 % of control. In addition, the T/C (endpoint: mean survival time, dose: 225.0 mg/kg/injection, schedule: Q01DX009 (ip), vehicle: saline) is 109 % of control.

For the compound `N=c1nc2n(cc1F)C1OC(CO)C(O)C1O2` (stereo unspecified), the T/C is, setting by setting: (endpoint: median survival time, dose: 200.0 mg/kg/injection, schedule: Q01DX005 (ip), vehicle: other) 163 % of control; (endpoint: median survival time, dose: 400.0 mg/kg/injection, schedule: Q01DX005 (ip), vehicle: other) 163 % of control.

Regarding `COC1OC(CBr)C(OC(C)=O)C(OC(C)=O)C1OS(C)(=O)=O` (stereo unspecified), the T/C by setting is: under setting [14], 100 % of control; under setting [15], 97 % of control; under setting [16], 103 % of control.

`Nc1ccccc1C(=O)N/N=C/c1ccccc1Cl`: the T/C by setting is: under setting [8], 102 % of control; under setting [9], 97 % of control; (endpoint: mean survival time, dose: 400.0 mg/kg/injection, schedule: Q01DX009 (ip), vehicle: Klucel (hydroxypropylcellulose) (HPC)) 86 % of control.

On to `C=CN1C(=O)N(C=C)C(C)(CC(C)C)C1=O` (stereo unspecified), for which the T/C is 104 % of control (endpoint: mean survival time, dose: 50.0 mg/kg/injection, schedule: Q01DX009 (ip), vehicle: saline with Tween-80); 103 % of control under setting [12]; 92 % of control (endpoint: mean survival time, dose: 100.0 mg/kg/injection, schedule: Q04DX003 (ip), vehicle: saline with Tween-80); 103 % of control under setting [13]; 92 % of control (endpoint: mean survival time, dose: 200.0 mg/kg/injection, schedule: Q04DX003 (ip), vehicle: saline with Tween-80).

In the case of `OC(C=C(C(F)(F)F)C(F)(F)F)c1cccc(Cl)c1` (stereo unspecified), the T/C reads like this: (endpoint: mean survival time, dose: 100.0 mg/kg/injection, schedule: Q04DX003 (sc), vehicle: olive oil, sesame oil, peanut oil) 97 % of control; (endpoint: mean survival time, dose: 200.0 mg/kg/injection, schedule: Q04DX003 (sc), vehicle: olive oil, sesame oil, peanut oil) 95 % of control; (endpoint: mean survival time, dose: 400.0 mg/kg/injection, schedule: Q04DX003 (sc), vehicle: olive oil, sesame oil, peanut oil) 91 % of control.

Turning to `COC(=O)c1ccccc1NC(=O)Nc1cccc(C(F)(F)F)c1`, the T/C was 101 % of control under setting [14], 92 % of control under setting [15] and 105 % of control under setting [16].
